Test results as given in patent US7589123B2, “Chemical compounds” (Phytopharm PLC, priority 2006, dated 2009).
One block for each compound: values may come before it.

Key:
TRPV1 receptor [1] = target: T1, TRPV1 receptor (Rattus norvegicus, UniProt O35433); experiment: TRPV1 receptor modulation in the rat vas deferens, EFS-induced contraction (Assay 1); conditions: electrical field stimulation, read-out: Inhibition of EFS response relative to capsaicin
Protocol: Wistar derived male rats (275±25 g) were suppressed by CO2 overexposure. The vas deferens was removed, placed in Krebs solution, pH 7.4 (composition in g/l: NaCl 6.89, KCl 0.35, CaCl2 0.277, KH2PO4 0.163, MgSO4.7H2O 0.296, NaHCO3 2.1 glucose 1.8) and excess fat and connective tissue removed. The portion of the vas deferens closest to the prostate was cut in half and each half was placed under 1 g tension in a 10 ml bath containing Krebs solution at 32° C. The tissue was contracted by electrical field stimulation (EFS; 60% of maximum stimulation, 0.015 Hz, 0.5 ms in duration) and contractile responses were measured.

TRPV1 receptor [2] = target: T1, TRPV1 receptor; experiment: TRPV1 modulation in DRG neurones: CGRP release in absence and presence of capsaicin (Assay 2); format: cell-based; design: The culture used for this experiment contained sensory neurones, Schwann cells and fibroblasts; endogenous in cells; host or cells: primary rat DRG sensory neurone culture (with Schwann cells and fibroblasts); conditions: 20 min; for inhibition at 3 µM: 3 μM with capsaicin 1 μM; for inhibition at 3 µM / inhibition at 30 µM: −ve: inhibition, +ve: potentiation of capsaicin response, read-out: Effect of test compounds on capsaicin (1 μM)-induced CGRP release (%); for inhibition at 30 µM: 30 μM with capsaicin 1 μM; for Emax at 3 µM: test compound alone 3 μM; for Emax at 3 µM / Emax at 30 µM: rat DRG sensory neurones, read-out: CGRP release (% of capsaicin (1 μM) response); for Emax at 30 µM: test compound alone 30 μM
5-lipoxygenase = target: T2, 5-lipoxygenase (Homo sapiens, UniProt P09917); experiment: 5-lipoxygenase activity (LTB4) in human peripheral blood mononuclear leukocytes (Assay 6); format: cell-based; conditions: human PBMLs, A23187 30 μM, read-out: Inhibition of 5-LO (%)
T2 construct: endogenous in cells; host or cells: human peripheral blood mononuclear leukocytes (PBMLs)
T2 sequence (P09917 1-674): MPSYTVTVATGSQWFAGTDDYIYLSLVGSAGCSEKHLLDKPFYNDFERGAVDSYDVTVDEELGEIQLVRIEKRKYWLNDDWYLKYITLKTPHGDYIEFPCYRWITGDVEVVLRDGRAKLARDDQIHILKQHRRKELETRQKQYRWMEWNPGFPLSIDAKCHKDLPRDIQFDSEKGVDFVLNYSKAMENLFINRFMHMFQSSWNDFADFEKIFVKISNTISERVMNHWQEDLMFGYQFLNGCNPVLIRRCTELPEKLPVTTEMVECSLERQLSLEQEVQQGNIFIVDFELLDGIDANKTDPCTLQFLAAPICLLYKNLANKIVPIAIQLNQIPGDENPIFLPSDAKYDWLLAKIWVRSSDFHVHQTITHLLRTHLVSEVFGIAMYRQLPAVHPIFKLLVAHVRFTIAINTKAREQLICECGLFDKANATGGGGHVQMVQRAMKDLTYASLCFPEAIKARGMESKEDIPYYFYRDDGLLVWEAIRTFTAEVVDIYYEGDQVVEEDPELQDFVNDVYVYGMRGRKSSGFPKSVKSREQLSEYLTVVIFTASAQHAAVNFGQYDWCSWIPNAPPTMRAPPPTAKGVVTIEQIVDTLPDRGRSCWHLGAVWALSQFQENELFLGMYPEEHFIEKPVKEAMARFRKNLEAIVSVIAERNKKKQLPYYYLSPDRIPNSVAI
Summary of the method: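 Human PBMLs (5×10^6 cells, Ficoll-isolated) stimulated with 30 μM A23187 plus compound at 3 or 30 μM or 0.1% DMSO in HBSS pH 7.4, 37° C., 15 min. After NaOH neutralisation and centrifugation, supernatant LTB4 measured by enzyme immunoassay.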

[3] = test system: α-smooth muscle actin (α-SMA) mRNA; experiment: Anti-remodelling activity in human lung fibroblasts (HFL1): TGFβ-induced α-SMA mRNA (Assay 4); format: cell-based; conditions: Homo sapiens, HFL1 cells, TGFβ 10 ng/ml, 24 h, read-out: Inhibition of α-SMA mRNA synthesis (%)
Summary of the method: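 Real-time RT-PCR of α-SMA mRNA, GAPDH as reference, measured after 24 h exposure of low-serum-primed HFL1 cells to 10 ng/ml TGFβ with test compounds (3 and 30 μM) in 10% FBS medium. Readout is inhibition of TGFβ-driven α-SMA mRNA overexpression.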

[4] = test system: histamine-induced contractions in guinea pig ileum; experiment: Inhibition of histamine-induced contractions in guinea pig ileum (Assay 3); conditions: Cavia porcellus, histamine 1.7 μM, read-out: Inhibition of histamine-induced contraction (%)
Summary of the method: (§1)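 Isolated male guinea pig ileum strips in Krebs at 32° C, pH 7.4, 1 g resting tension, isotonic recording. Contraction to test compound (3 and 30 μM) alone recorded, then inhibition of responses to histamine 1.7 μM or 5-HT 2.6 μM (~EC60-70, 5 min) measured in its continued presence.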

[5] = test system: 5-HT-induced contractions in guinea pig ileum; experiment: Inhibition of 5-HT-induced contractions in guinea pig ileum (Assay 3); conditions: Cavia porcellus, 5-HT 2.6 μM, read-out: Inhibition of 5-HT-induced contraction (%)
Summary of the method: as §1

WI-38 cells = experiment: Viability of WI-38 cells, Alamar Blue (Assay 5); format: cell-based, human
Summary of the method: (§2)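 WI-38 fibroblasts stimulated overnight at 37 °C with 1 nM IL-1α plus test compound at 3 and 30 μM in MEM with 10% FBS, pH 7.3; released PGE2 in supernatant quantified by radioimmunoassay as percent inhibition. Viability then checked by Alamar Blue, 4 h at 37 °C, fluorescence ex 530/em 590 nm.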

[6] = test system: IL-1α-induced PGE2 release; experiment: IL-1α-induced PGE2 release in human diploid lung fibroblasts (WI-38) (Assay 5); format: cell-based; conditions: Homo sapiens, WI-38 cells, IL-1α 1 nM, overnight
Summary of the method: as §2

T1 sequence (O35433 whole entry): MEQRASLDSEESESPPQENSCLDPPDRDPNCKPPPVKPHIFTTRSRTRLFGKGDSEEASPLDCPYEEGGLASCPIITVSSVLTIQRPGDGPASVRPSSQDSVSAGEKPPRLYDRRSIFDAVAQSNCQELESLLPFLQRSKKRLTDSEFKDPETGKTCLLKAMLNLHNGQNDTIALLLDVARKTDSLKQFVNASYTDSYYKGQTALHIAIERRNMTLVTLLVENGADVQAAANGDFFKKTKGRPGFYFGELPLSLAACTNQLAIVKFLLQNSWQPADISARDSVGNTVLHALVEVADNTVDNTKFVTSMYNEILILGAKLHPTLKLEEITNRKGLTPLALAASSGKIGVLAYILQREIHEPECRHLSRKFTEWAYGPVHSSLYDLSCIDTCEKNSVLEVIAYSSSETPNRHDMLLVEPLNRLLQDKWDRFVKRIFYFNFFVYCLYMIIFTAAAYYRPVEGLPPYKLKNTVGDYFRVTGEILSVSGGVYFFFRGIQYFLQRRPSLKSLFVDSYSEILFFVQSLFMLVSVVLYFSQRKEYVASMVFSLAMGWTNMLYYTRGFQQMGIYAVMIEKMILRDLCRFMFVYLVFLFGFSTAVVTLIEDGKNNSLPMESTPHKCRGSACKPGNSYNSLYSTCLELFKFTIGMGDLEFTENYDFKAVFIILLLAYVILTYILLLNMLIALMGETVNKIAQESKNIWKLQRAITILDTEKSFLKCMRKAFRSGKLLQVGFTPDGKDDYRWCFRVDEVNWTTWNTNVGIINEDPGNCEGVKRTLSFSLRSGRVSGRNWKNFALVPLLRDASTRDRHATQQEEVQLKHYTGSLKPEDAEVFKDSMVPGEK

Structure (SMILES): COc1cc(CCC(=O)CC(=O)CC(C)(C)C)ccc1O [Compound 3, 7,7-Dimethyl-1-(4-hydroxy-3-methoxyphenyl)-octane-3,5-dione]
- Emax (TRPV1 receptor [1]): 63%

Structure (SMILES): COc1cc(CCC(=O)CC(=O)C2CCCC2)ccc1O [Compound 8, 1-Cyclopentyl-5-(4-hydroxy-3-methoxyphenyl)-pentane-1,3-dione]
- Emax (TRPV1 receptor [1]): 36%

Structure (SMILES): COc1cc(CCC(=O)CC(=O)C2(C)CCCCC2)ccc1O [Compound 10, 5-(4-Hydroxy-3-methoxy-phenyl)-1-(1-methyl-cyclohexyl)-pentane-1,3-dione]
- Emax (TRPV1 receptor [1]): 16%

Structure (SMILES): COc1cc(CCC(=O)CC(=O)c2ccc(-c3ccccc3)cc2)ccc1O [Compound 18, 1-(Biphenyl-4-yl)-5-(4-hydroxy-3-methoxyphenyl)-pentane-1,3-dione]
- inhibition at 3 µM (TRPV1 receptor [2]): 10%
- inhibition at 30 µM (TRPV1 receptor [2]): -12%
- Emax at 3 µM (TRPV1 receptor [2]): 146%
- Emax at 30 µM (TRPV1 receptor [2]): 146%
- inhibition at 3 µM (5-lipoxygenase): 58%
- inhibition at 30 µM (5-lipoxygenase): 94%
- inhibition at 3 µM [3]: 13%
- inhibition at 30 µM [3]: 79%
- inhibition at 3 µM [4]: 0%
- inhibition at 30 µM [4]: 7%
- inhibition at 3 µM [5]: 0%
- inhibition at 30 µM [5]: 3%
- melting point: 118 to 119 °C
- Decrease in cell viability (%) (WI-38 cells; 3 μM): 3%
- Decrease in cell viability (%) (WI-38 cells; 30 μM): 15%
- inhibition at 3 µM [6]: 86%
- inhibition at 30 µM [6]: 99%

Structure (SMILES): COc1cc(CCC(=O)CC(=O)c2ccc3ccccc3c2)ccc1O [Compound 26, 5-(4-Hydroxy-3-methoxyphenyl)-1-(naphthalene-2-yl)-pentane-1,3-dione]
- inhibition at 3 µM (TRPV1 receptor [2]): 47%
- inhibition at 30 µM (TRPV1 receptor [2]): -31%
- Emax at 3 µM (TRPV1 receptor [2]): 66%
- Emax at 30 µM (TRPV1 receptor [2]): 248%
- inhibition at 3 µM (5-lipoxygenase): 60%
- inhibition at 30 µM (5-lipoxygenase): 98%
- inhibition at 3 µM [3]: 2%
- inhibition at 30 µM [3]: 64%
- inhibition at 3 µM [4]: 3%
- inhibition at 30 µM [4]: 34%
- inhibition at 3 µM [5]: 7%
- inhibition at 30 µM [5]: 40%
- melting point: 101 to 102 °C
- Decrease in cell viability (%) (WI-38 cells; 3 μM): 3%
- Decrease in cell viability (%) (WI-38 cells; 30 μM): 10%
- inhibition at 3 µM [6]: 81%
- inhibition at 30 µM [6]: 100%

Structure (SMILES): COc1cc(/C=C/C(=O)CC(=O)CC(C)(C)C)ccc1O [Compound 35, (E)-7,7-Dimethyl-1-(4-hydroxy-3-methoxyphenyl)-oct-1-ene-3,5-dione]
- Emax (TRPV1 receptor [1]): 25%
- melting point: 130 to 132 °C

Structure (SMILES): COc1cc(/C=C/C(=O)CC(=O)C2CCCC2)ccc1O [Compound 40, (E)-1-Cyclopentyl-5-(4-hydroxy-3-methoxyphenyl)-pent-4-ene-1,3-dione]
- Emax (TRPV1 receptor [1]): -82%

Structure (SMILES): COc1cc(/C=C/C(=O)CC(=O)C2(C)CCCCC2)ccc1O [Compound 42, (E)-5-(4-Hydroxy-3-methoxyphenyl)-1-(1-methylcyclohexyl)-pent-4-ene-1,3-dione]
- Emax (TRPV1 receptor [1]): 6%

Second part, led by results:

- Emax (TRPV1 receptor [1]): -12%
Structure (SMILES): COc1cc(/C=C/C(=O)CC(=O)C(C)C)ccc1O [Compound 33, (E)-1-(4-Hydroxy-3-methoxyphenyl)-6-methyl-hept-1-ene-3,5-dione]

- Emax (TRPV1 receptor [1]): -15%
Structure (SMILES): COc1cc(/C=C/C(=O)CC(=O)C(C)(C)C)ccc1O [Compound 34, (E)-1-(4-Hydroxy-3-methoxylphenyl)-6,6-dimethyl-hept-1-ene-3,5-dione]
- inhibition at 3 µM [4]: 11%
- inhibition at 30 µM [4]: 22%
- inhibition at 3 µM [5]: 2%
- inhibition at 30 µM [5]: 43%
- Decrease in cell viability (%) (WI-38 cells; 3 μM): 3%
- Decrease in cell viability (%) (WI-38 cells; 30 μM): 5%
- inhibition at 3 µM [6]: 72%
- inhibition at 30 µM [6]: 109%

- Emax (TRPV1 receptor [1]): -36%
- melting point: 78 to 80 °C
Structure (SMILES): COc1cc(/C=C/C(=O)CC(=O)C2(C)CC2)ccc1O [Compound 38, (E)-5-(4-Hydroxy-3-methoxylphenyl)-1-(1-methylcyclopropyl)-pent-4-ene-1,3-dione]

- Emax (TRPV1 receptor [1]): -13%
Structure (SMILES): COc1cc(/C=C/C(=O)C(C)C(=O)c2ccccc2)ccc1O (centres unmarked) [Compound 43, (E)-5-(4-Hydroxy-3-methoxyphenyl)-2-methyl-1-phenyl-pent-4-ene-1,3-dione]

- Emax (TRPV1 receptor [1]): 14%
- melting point: 159 to 161.5 °C
Structure (SMILES): COc1cc(/C=C/C(=O)CC(=O)c2ccccc2)ccc1O [Compound 68, (E)-5-(4-Hydroxy-3-methoxyphenyl)-1-phenyl-pent-4-ene-1,3-dione]
